The text below walks through data of ChEMBL document CHEMBL5252645, “Hydroxylated cyclopamine analogues from Veratrum californicum and their hedgehog pathway inhibiting activity” (Bioorg Med Chem, 2023).

By IC50 is commonly meant the concentration that gives 50% inhibition.

One assay is described as follows: Inhibition of Shh-induced hedgehog signalling pathway in mouse MEF cells expressing Gli-Luc reporter gene assessed as reduction in Gli1 transcription activity incubated for 24 hrs in presence of mouse shh stimulation by dual luciferase Assay. In kind it is cell-based.
Settings: not given
On the technique in general: A reporter such as luciferase makes a cellular process visible.
Take `CC1=C2C[C@H]3[C@@H](CC=C4C[C@@H](O)CC[C@@]43C)[C@@H]2CC[C@]12O[C@@H]1[C@H](O)[C@H](C)CN[C@H]1[C@H]2C`: the IC50 turned out to be 210 nM.

In the case of `C[C@@H]1CN[C@H]2[C@@H](C)[C@@]3(CC[C@@H]4C(=C3CO)C[C@H]3[C@H]4CC=C4C[C@@H](O)CC[C@@]43C)O[C@@H]2C1`, the IC50 was determined as 2800 nM.

With `CC1=C2C[C@H]3[C@@H](CC=C4C[C@@H](O)CC[C@@]43C)[C@@H]2CC[C@]12O[C@@H]1C[C@H](C)CN[C@H]1[C@H]2C` [CYCLOPAMINE], the IC50 came out at 110 nM.

The nature of another assay: Inhibition of Shh-induced hedgehog signalling pathway in mouse NIH/3T3 cells expressing Gli-Luc reporter gene assessed as reduction in Gli1 transcription activity incubated for 24 hrs in presence of mouse shh stimulation by dual luciferase Assay. It is filed as cell-based. The following applies: NIH3T3, 24 h.
As for `CC1=C2C[C@H]3[C@@H](CC=C4C[C@@H](O)CC[C@@]43C)[C@@H]2CC[C@]12O[C@@H]1[C@H](O)[C@H](C)CN[C@H]1[C@H]2C`, the IC50 came out at 150 nM.

With `C[C@@H]1CN[C@H]2[C@@H](C)[C@@]3(CC[C@@H]4C(=C3CO)C[C@H]3[C@H]4CC=C4C[C@@H](O)CC[C@@]43C)O[C@@H]2C1`, the IC50 is 2080 nM.

`CC1=C2C[C@H]3[C@@H](CC=C4C[C@@H](O)CC[C@@]43C)[C@@H]2CC[C@]12O[C@@H]1C[C@H](C)CN[C@H]1[C@H]2C` [CYCLOPAMINE]: the IC50 was 270 nM.
